Reference: the NIST ThermoML archive (doi:10.1016/j.jct.2013.02.020)
Numbers after ± are expanded uncertainties.

Tests used:
[1] = refractive index (Na D-line) (dimensionless); settings: 298.15 K; 100 kPa; Liquid; Standard Abbe refractometry
[2] = 298.15 K; for surface tension liquid-gas: Wilhelmy plate method; for mass density: 100 kPa, Liquid, Vibrating tube method

Row | refractive index [1] | surface tension liquid-gas [2] [mN/m] | mass density [2] [kg/m3] | Compound
1 | 1.5012 ± 0.0005 | 43.5 ± 0.2 | 1097.37 ± 2.2 | CC(=O)[O-].CCn1cc[n+](C)c1 [1-ethyl-3-methylimidazolium acetate]
2 | 1.4771 ± 0.0005 | 48.4 ± 0.2 | 1234.53 ± 2.2 | CCOS(=O)(=O)[O-].CCn1cc[n+](C)c1 [1-ethyl-3-methylimidazolium ethyl sulfate]
3 | 1.4962 ± 0.0005 | 51.2 ± 0.3 | 1242.52 ± 2.2 | CCn1cc[n+](C)c1.CS(=O)(=O)[O-] [1-ethyl-3-methylimidazolium methanesulfonate]
4 | 1.5271 ± 0.0006 | 31.7 ± 0.3 | 1058.44 ± 2.4 | c1ccsc1 [thiophene]

Row | Compound | refractive index [1] | surface tension liquid-gas [2] [mN/m] | mass density [2] [kg/m3]
5 | c1ccncc1 [pyridine] | 1.5072 ± 0.0006 | 37.5 ± 0.4 | 978.25 ± 2.3
